Test results reported in US20100099561A1, “HETEROBICYCLIC ALKYLTHIO-BRIDGED ISOXAZOLINES” (E.I. DU PONT DE NEMOURS AND COMPANY, priority 2008, published 2010).

Columns and labels:
Type in all cases: in vivo
[1] = system: giant foxtail (Setaria faberi); test: Test A postemergence, giant foxtail; conditions: 0 to 100 scale (0 no effect, 100 complete control)
Summary of the method: (§1)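 Ratings of 0–100 (0 no effect, 100 complete control) came from visual comparison with untreated controls after roughly ten days in a greenhouse. Plants in loam soil–sand blend were treated with compound in non-phytotoxic solvent plus surfactant, pre- or postemergence (one- to two-leaf stage).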

[2] = system: barnyardgrass (Echinochloa crus-galli); test: Test A preemergence, barnyardgrass; conditions: 0 to 100 scale (0 no effect, 100 complete control)
Summary of the method: as §1

[3] = system: large crabgrass (Digitaria sanguinalis); test: Test A postemergence, large crabgrass; conditions: 0 to 100 scale (0 no effect, 100 complete control)
Summary of the method: as §1

[4] = system: wheat (Triticum aestivum); test: Test A preemergence, wheat; conditions: 0 to 100 scale (0 no effect, 100 complete control)
Summary of the method: as §1

[5] = system: barnyardgrass (Echinochloa crus-galli); test: Test B flooded paddy test, barnyardgrass; conditions: Flood
Summary of the method: (§2)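 Rice, umbrella sedge, ducksalad and barnyardgrass at 2-leaf stage; pots flooded to 3 cm, compounds applied into paddy water, depth held throughout. Greenhouse 13 to 15 days, then visual rating vs untreated controls on 0–100 scale (0 no effect, 100 complete control); dash means no test result.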

[6] = system: wheat (Triticum aestivum); test: Test A postemergence, wheat; conditions: 0 to 100 scale (0 no effect, 100 complete control)
Summary of the method: as §1

[7] = system: velvetleaf (Abutilon theophrasti); test: Test A postemergence, velvetleaf; conditions: 0 to 100 scale (0 no effect, 100 complete control)
Summary of the method: as §1

[8] = system: corn (Zea mays); test: Test A preemergence, corn; conditions: 0 to 100 scale (0 no effect, 100 complete control)
Summary of the method: as §1

[9] = system: large crabgrass (Digitaria sanguinalis); test: Test A preemergence, large crabgrass; conditions: 0 to 100 scale (0 no effect, 100 complete control)
Summary of the method: as §1

[10] = system: giant foxtail (Setaria faberi); test: Test A preemergence, giant foxtail; conditions: 0 to 100 scale (0 no effect, 100 complete control)
Summary of the method: as §1

[11] = system: corn (Zea mays); test: Test A postemergence, corn; conditions: 0 to 100 scale (0 no effect, 100 complete control)
Summary of the method: as §1

[12] = system: morningglory (Ipomoea spp.); test: Test A preemergence, morningglory; conditions: 0 to 100 scale (0 no effect, 100 complete control)
Summary of the method: as §1

[13] = system: morningglory (Ipomoea spp.); test: Test A postemergence, morningglory; conditions: 0 to 100 scale (0 no effect, 100 complete control)
Summary of the method: as §1

[14] = system: barnyardgrass (Echinochloa crus-galli); test: Test A postemergence, barnyardgrass; conditions: 0 to 100 scale (0 no effect, 100 complete control)
Summary of the method: as §1

[15] = system: ducksalad (Heteranthera limosa); test: Test B flooded paddy test, ducksalad; conditions: Flood, scale 0 to 100
Summary of the method: as §2

[16] = system: umbrella sedge (Cyperus difformis); test: Test B flooded paddy test, umbrella sedge; conditions: Flood, scale 0 to 100
Summary of the method: as §2

[17] = system: pigweed (Amaranthus retroflexus); test: Test A preemergence, pigweed; conditions: 0 to 100 scale (0 no effect, 100 complete control)
Summary of the method: as §1

[18] = system: velvetleaf (Abutilon theophrasti); test: Test A preemergence, velvetleaf; conditions: 0 to 100 scale (0 no effect, 100 complete control)
Summary of the method: as §1

[19] = system: pigweed (Amaranthus retroflexus); test: Test A postemergence, pigweed; conditions: 0 to 100 scale (0 no effect, 100 complete control)
Summary of the method: as §1

[20] = system: rice (Oryza sativa); test: Test B flooded paddy test, rice; conditions: Flood, scale 0 to 100
Summary of the method: as §2

[21] = 250 g ai/ha, scale 0 to 100 (0 no effect, 100 complete control)

CC1(C)CC([S+]([O-])Cc2c(C(F)(F)C(F)(F)F)nc3n(c2=O)CCCC3)=NO1 (stereo not drawn) [Compound 19]
Plant response rating, Foxtail, Giant ([1]; 125 g ai/ha): 0 | Plant response rating, Foxtail, Giant ([1]; 500 g ai/ha): 50 | Plant response rating, Barnyardgrass ([2]; 125 g ai/ha): 0 | Plant response rating, Barnyardgrass ([2]; 500 g ai/ha): 80 | Plant response rating, Crabgrass, Large ([3]; 125 g ai/ha): 0 | Plant response rating, Crabgrass, Large ([3]; 500 g ai/ha): 30 | Plant response rating, Wheat ([4]; 125 g ai/ha): 0 | Plant response rating, Wheat ([4]; 500 g ai/ha): 20 | Plant response rating, Barnyardgrass ([5]; 31 g ai/ha, scale 0 to 100): 0 | Plant response rating, Barnyardgrass ([5]; 62 g ai/ha, scale 0 to 100): 0 | Plant response rating, Barnyardgrass ([5]; 125 g ai/ha, scale 0 to 100): 0 | Plant response rating, Barnyardgrass [5, 21]: 0 | Plant response rating, Wheat ([6]; 125 g ai/ha): 0 | Plant response rating, Wheat ([6]; 500 g ai/ha): 20 | Plant response rating, Velvetleaf ([7]; 125 g ai/ha): 0 | Plant response rating, Velvetleaf ([7]; 500 g ai/ha): 20 | Plant response rating, Corn ([8]; 500 g ai/ha): 20 | Plant response rating, Crabgrass, Large ([9]; 125 g ai/ha): 0 | Plant response rating, Crabgrass, Large ([9]; 500 g ai/ha): 80 | Plant response rating, Foxtail, Giant ([10]; 125 g ai/ha): 0 | Plant response rating, Foxtail, Giant ([10]; 500 g ai/ha): 80 | Plant response rating, Corn ([11]; 125 g ai/ha): 0 | Plant response rating, Corn ([11]; 500 g ai/ha): 40 | Plant response rating, Morningglory ([12]; 125 g ai/ha): 0 | Plant response rating, Morningglory ([12]; 500 g ai/ha): 60 | Plant response rating, Morningglory ([13]; 125 g ai/ha): 0 | Plant response rating, Morningglory ([13]; 500 g ai/ha): 20 | Plant response rating, Barnyardgrass ([14]; 125 g ai/ha): 10 | Plant response rating, Barnyardgrass ([14]; 500 g ai/ha): 70 | Plant response rating, Ducksalad ([15]; 31 g ai/ha): 0 | Plant response rating, Ducksalad ([15]; 62 g ai/ha): 0 | Plant response rating, Ducksalad ([15]; 125 g ai/ha): 0 | Plant response rating, Ducksalad ([15]; 250 g ai/ha): 0 | Plant response rating, Sedge, Umbrella ([16]; 31 g ai/ha): 0 | Plant response rating, Sedge, Umbrella ([16]; 62 g ai/ha): 0 | Plant response rating, Sedge, Umbrella ([16]; 125 g ai/ha): 0 | Plant response rating, Sedge, Umbrella ([16]; 250 g ai/ha): 0 | Plant response rating, Pigweed ([17]; 125 g ai/ha): 0 | Plant response rating, Pigweed ([17]; 500 g ai/ha): 20 | Plant response rating, Velvetleaf ([18]; 125 g ai/ha): 0 | Plant response rating, Velvetleaf ([18]; 500 g ai/ha): 0 | Plant response rating, Pigweed ([19]; 125 g ai/ha): 0 | Plant response rating, Pigweed ([19]; 500 g ai/ha): 10 | Plant response rating, Rice ([20]; 31 g ai/ha): 0 | Plant response rating, Rice ([20]; 62 g ai/ha): 0 | Plant response rating, Rice ([20]; 125 g ai/ha): 0 | Plant response rating, Rice ([20]; 250 g ai/ha): 0

CC1(C)CC([S+]([O-])Cc2c(C(F)(F)F)nc3n(c2=O)CCS3)=NO1 (stereo not drawn) [Compound 5]
Plant response rating, Foxtail, Giant ([1]; 125 g ai/ha): 40 | Plant response rating, Foxtail, Giant ([1]; 500 g ai/ha): 70 | Plant response rating, Barnyardgrass ([2]; 125 g ai/ha): 0 | Plant response rating, Barnyardgrass ([2]; 500 g ai/ha): 70 | Plant response rating, Crabgrass, Large ([3]; 125 g ai/ha): 10 | Plant response rating, Crabgrass, Large ([3]; 500 g ai/ha): 70 | Plant response rating, Wheat ([4]; 125 g ai/ha): 0 | Plant response rating, Wheat ([4]; 500 g ai/ha): 0 | Plant response rating, Barnyardgrass ([5]; 62 g ai/ha, scale 0 to 100): 10 | Plant response rating, Barnyardgrass [5, 21]: 30 | Plant response rating, Wheat ([6]; 125 g ai/ha): 0 | Plant response rating, Wheat ([6]; 500 g ai/ha): 0 | Plant response rating, Velvetleaf ([7]; 125 g ai/ha): 0 | Plant response rating, Velvetleaf ([7]; 500 g ai/ha): 40 | Plant response rating, Corn ([8]; 125 g ai/ha): 0 | Plant response rating, Corn ([8]; 500 g ai/ha): 0 | Plant response rating, Crabgrass, Large ([9]; 125 g ai/ha): 40 | Plant response rating, Crabgrass, Large ([9]; 500 g ai/ha): 80 | Plant response rating, Foxtail, Giant ([10]; 125 g ai/ha): 30 | Plant response rating, Foxtail, Giant ([10]; 500 g ai/ha): 80 | Plant response rating, Corn ([11]; 125 g ai/ha): 0 | Plant response rating, Corn ([11]; 500 g ai/ha): 30 | Plant response rating, Morningglory ([12]; 125 g ai/ha): 0 | Plant response rating, Morningglory ([12]; 500 g ai/ha): 0 | Plant response rating, Morningglory ([13]; 125 g ai/ha): 0 | Plant response rating, Morningglory ([13]; 500 g ai/ha): 0 | Plant response rating, Barnyardgrass ([14]; 125 g ai/ha): 30 | Plant response rating, Barnyardgrass ([14]; 500 g ai/ha): 60 | Plant response rating, Ducksalad ([15]; 62 g ai/ha): 0 | Plant response rating, Ducksalad ([15]; 250 g ai/ha): 20 | Plant response rating, Sedge, Umbrella ([16]; 62 g ai/ha): 0 | Plant response rating, Sedge, Umbrella ([16]; 250 g ai/ha): 45 | Plant response rating, Pigweed ([17]; 125 g ai/ha): 40 | Plant response rating, Pigweed ([17]; 500 g ai/ha): 60 | Plant response rating, Velvetleaf ([18]; 125 g ai/ha): 0 | Plant response rating, Velvetleaf ([18]; 500 g ai/ha): 0 | Plant response rating, Pigweed ([19]; 125 g ai/ha): 0 | Plant response rating, Pigweed ([19]; 500 g ai/ha): 10 | Plant response rating, Rice ([20]; 62 g ai/ha): 0 | Plant response rating, Rice ([20]; 250 g ai/ha): 0

CC1(C)CC([S+]([O-])Cc2c(C(F)(F)Cl)nc3n(c2=O)CCC3)=NO1 (stereo not drawn) [Compound 17]
Plant response rating, Foxtail, Giant ([1]; 125 g ai/ha): 30 | Plant response rating, Foxtail, Giant ([1]; 500 g ai/ha): 60 | Plant response rating, Barnyardgrass ([2]; 125 g ai/ha): 20 | Plant response rating, Barnyardgrass ([2]; 500 g ai/ha): 60 | Plant response rating, Crabgrass, Large ([3]; 125 g ai/ha): 20 | Plant response rating, Crabgrass, Large ([3]; 500 g ai/ha): 50 | Plant response rating, Wheat ([4]; 125 g ai/ha): 0 | Plant response rating, Wheat ([4]; 500 g ai/ha): 0 | Plant response rating, Barnyardgrass ([5]; 31 g ai/ha, scale 0 to 100): 0 | Plant response rating, Barnyardgrass ([5]; 62 g ai/ha, scale 0 to 100): 0 | Plant response rating, Barnyardgrass ([5]; 125 g ai/ha, scale 0 to 100): 0 | Plant response rating, Barnyardgrass [5, 21]: 0 | Plant response rating, Wheat ([6]; 125 g ai/ha): 0 | Plant response rating, Wheat ([6]; 500 g ai/ha): 20 | Plant response rating, Velvetleaf ([7]; 125 g ai/ha): 0 | Plant response rating, Velvetleaf ([7]; 500 g ai/ha): 10 | Plant response rating, Corn ([8]; 125 g ai/ha): 0 | Plant response rating, Corn ([8]; 500 g ai/ha): 0 | Plant response rating, Crabgrass, Large ([9]; 125 g ai/ha): 40 | Plant response rating, Crabgrass, Large ([9]; 500 g ai/ha): 80 | Plant response rating, Foxtail, Giant ([10]; 125 g ai/ha): 30 | Plant response rating, Foxtail, Giant ([10]; 500 g ai/ha): 80 | Plant response rating, Corn ([11]; 125 g ai/ha): 0 | Plant response rating, Corn ([11]; 500 g ai/ha): 0 | Plant response rating, Morningglory ([12]; 125 g ai/ha): 0 | Plant response rating, Morningglory ([12]; 500 g ai/ha): 0 | Plant response rating, Morningglory ([13]; 125 g ai/ha): 0 | Plant response rating, Morningglory ([13]; 500 g ai/ha): 0 | Plant response rating, Barnyardgrass ([14]; 125 g ai/ha): 0 | Plant response rating, Barnyardgrass ([14]; 500 g ai/ha): 60 | Plant response rating, Ducksalad ([15]; 31 g ai/ha): 0 | Plant response rating, Ducksalad ([15]; 62 g ai/ha): 0 | Plant response rating, Ducksalad ([15]; 125 g ai/ha): 0 | Plant response rating, Ducksalad ([15]; 250 g ai/ha): 0 | Plant response rating, Sedge, Umbrella ([16]; 31 g ai/ha): 0 | Plant response rating, Sedge, Umbrella ([16]; 62 g ai/ha): 0 | Plant response rating, Sedge, Umbrella ([16]; 125 g ai/ha): 0 | Plant response rating, Sedge, Umbrella ([16]; 250 g ai/ha): 0 | Plant response rating, Pigweed ([17]; 125 g ai/ha): 0 | Plant response rating, Pigweed ([17]; 500 g ai/ha): 0 | Plant response rating, Velvetleaf ([18]; 125 g ai/ha): 0 | Plant response rating, Velvetleaf ([18]; 500 g ai/ha): 0 | Plant response rating, Pigweed ([19]; 125 g ai/ha): 0 | Plant response rating, Pigweed ([19]; 500 g ai/ha): 10 | Plant response rating, Rice ([20]; 31 g ai/ha): 0 | Plant response rating, Rice ([20]; 62 g ai/ha): 0 | Plant response rating, Rice ([20]; 125 g ai/ha): 0 | Plant response rating, Rice ([20]; 250 g ai/ha): 0
